Test [1] relates to endocannabinoid receptors. The arrangement: method as in PMID 25686780. As to conditions: radioligand binding; cited from earlier work.
The subject of test [2] is opioid receptors. Further details: method as in PMID 25686780. Conditions: radioligand binding; cited from earlier work.
Test [3] has as its system pain. Further details: method as in PMID 30193010. Conditions: in vivo; cited from earlier work.
Test [4] has as its system pro-inflammatory factors. Further details: method as in PMID 30193010. As to conditions: compared to other naringenin derivatives; cited from earlier work.
The target in test [5] is T1, TRPA1 channels (Homo sapiens, UniProt O75762).
T1 construct: expressed in transfected cells
Put plainly: whole-cell patch-clamp, TRPA1 stably expressed in HEK293 cells. The class given is cell-based.

Test [6] concerns sleep. The arrangement: method as in PMID 34747100. Conditions: extracted from peanut stem and leaf; cited from earlier work.
Test [7] deals with Nav channels and Kv channels in cortical neurons. Further details: method as in PMID 34747100. As to conditions: cited from earlier work.

T1 sequence (O75762 whole entry): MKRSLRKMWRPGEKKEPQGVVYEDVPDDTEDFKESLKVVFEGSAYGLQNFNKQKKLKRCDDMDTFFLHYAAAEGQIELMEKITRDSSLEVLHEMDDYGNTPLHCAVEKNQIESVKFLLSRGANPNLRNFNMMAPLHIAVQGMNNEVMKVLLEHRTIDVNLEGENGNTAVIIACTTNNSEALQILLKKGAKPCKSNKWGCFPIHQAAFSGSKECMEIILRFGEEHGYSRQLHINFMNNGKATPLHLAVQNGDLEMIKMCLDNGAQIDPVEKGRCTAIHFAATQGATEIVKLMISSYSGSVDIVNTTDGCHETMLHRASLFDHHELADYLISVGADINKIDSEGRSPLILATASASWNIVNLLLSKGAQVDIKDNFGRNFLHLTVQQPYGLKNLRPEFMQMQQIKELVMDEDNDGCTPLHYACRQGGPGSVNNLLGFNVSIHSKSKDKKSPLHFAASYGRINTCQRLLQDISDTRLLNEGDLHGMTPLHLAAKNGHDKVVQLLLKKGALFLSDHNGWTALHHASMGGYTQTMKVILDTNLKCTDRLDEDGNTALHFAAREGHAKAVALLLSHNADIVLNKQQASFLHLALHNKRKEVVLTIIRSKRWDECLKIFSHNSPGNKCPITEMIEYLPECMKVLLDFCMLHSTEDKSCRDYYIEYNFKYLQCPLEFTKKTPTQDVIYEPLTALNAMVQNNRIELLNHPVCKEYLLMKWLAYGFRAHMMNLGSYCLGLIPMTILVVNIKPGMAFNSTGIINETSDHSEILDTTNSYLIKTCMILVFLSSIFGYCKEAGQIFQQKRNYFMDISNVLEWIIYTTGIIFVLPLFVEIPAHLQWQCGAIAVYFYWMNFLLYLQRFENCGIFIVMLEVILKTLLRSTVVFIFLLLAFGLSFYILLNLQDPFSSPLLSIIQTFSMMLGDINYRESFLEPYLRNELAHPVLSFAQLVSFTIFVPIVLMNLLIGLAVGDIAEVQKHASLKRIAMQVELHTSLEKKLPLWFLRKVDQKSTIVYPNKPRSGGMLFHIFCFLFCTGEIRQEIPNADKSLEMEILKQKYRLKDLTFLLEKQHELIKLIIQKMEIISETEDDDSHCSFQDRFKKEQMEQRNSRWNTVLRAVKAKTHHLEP

With `COc1ccc([C@@H]2CC(=O)c3c(O)cc(OC)cc3O2)cc1` [(+)-NRG-DM, (+)-naringenin 4′,7-dimethyl ether], the affinity result in test [1] and in test [2] was “does not show affinity” throughout. For the same compound, the analgesic activity result in test [3] is recorded as “showed analgesic activity”. Moreover, the “production and release of pro-inflammatory factors” value in test [4] is “did not influence the production and release of pro-inflammatory factors”.
Turning to `C=CCN=C=S` [AITC, allyl isothiocyanate], the “effect on TRPA1 currents” value in test [5] (10 µM, TRPA1 channel activator) is listed as “induced”.
Consider `CC(C)c1ccc(NC(=O)Cn2cnc3c2c(=O)n(C)c(=O)n3C)cc1` [HC030031], for which the “effect on TRPA1 currents” value in test [5] (30 µM, TRPA1 channel inhibitor) is on record as “inhibited”.
For `COc1ccc([C@@H]2CC(=O)c3c(O)cc(OC)cc3O2)cc1` [NRG-DM], in test [6], the sleep entry is “promoted sleep”. Further, in test [7], the “inhibitory activity on Nav channels versus Kv channels” value is recorded as “more potent than that on Kv channels”.

Values taken from article PMC8911579, “(−)-Naringenin 4′,7-dimethyl Ether Isolated from Nardostachys jatamansi Relieves Pain through Inhibition of Multiple Channels” (Molecules, 2022).
